Legend:
[1] = test system: green peach aphid (Myzus persicae); assay: Myzus persicae - spray test (Chinese cabbage leaf discs); type: in vivo; details: after 5 days
Description: Solvent: 78 parts by weight of acetone • • 1.5 parts by weight of dimethylformamide Emulsifier: alkylaryl polyglycol ether
(§1) To produce a suitable active compound formulation, 1 part by weight of active compound is dissolved with the stated parts by weight of solvent and made up with water containing an emulsifier concentration of 1000 ppm until the desired concentration is attained. To produce further test concentrations, the formulation is diluted with emulsifier-containing water.
Discs of Chinese cabbage leaves (Brassica pekinensis) infested by all stages of the green peach aphid (Myzus persicae) are sprayed with an active compound formulation of the desired concentration.
After 5 days, the efficacy in % is determined. 100% means that all the aphids have been killed and 0% means that none of the aphids have been killed.

[2] = log P by HPLC on a reversed-phase column (C 18), EEC Directive 79/831 Annex V.A8; type: physicochemical
From the text: Called log P (HCOOH) in the table.
Called log P (neutral) in the table.

[3] = test system: larvae of the mustard beetle (Phaedon cochleariae); assay: Phaedon cochleariae - spray test; type: in vivo; details: after 7 days
Description: Solvent: 78.0 parts by weight of acetone • • 1.5 parts by weight of dimethylformamide
(§2) Emulsifier: alkylaryl polyglycol ether
as §1
Discs of Chinese cabbage leaves (Brassica pekinensis) are sprayed with an active compound formulation of the desired concentration and, after drying, populated with larvae of the mustard beetle (Phaedon cochleariae).
After 7 days, the efficacy in % is determined. 100% means that all the beetle larvae have been killed and 0% means that none of the beetle larvae have been killed.

[4] = test system: unfed adult cat fleas (Ctenocephalides felis); assay: Ctenocephalides felis - oral test; type: in vivo; details: application rate 100 ppm in citrated cattle blood; after 2 days
Description: (§3) Solvent: dimethyl sulphoxide
For the purpose of production of a suitable active compound formulation, 10 mg of active compound are mixed with 0.5 ml of dimethyl sulphoxide. Dilution with citrated cattle blood gives the desired concentration.
About 20 unfed adult cat fleas (Ctenocephalides felis) are placed into a chamber which is closed at the top and bottom with gauze. A metal cylinder whose bottom end is closed with parafilm is placed onto the chamber. The cylinder contains the blood/active compound formulation, which can be imbibed by the fleas through the parafilm membrane.
After 2 days, the kill in % is determined. 100% means that all of the fleas have been killed; 0% means that none of the fleas have been killed.

[5] = test system: adult cat fleas (Ctenocephalides felis); assay: Ctenocephalides felis - in vitro contact tests with adult cat fleas; type: in vivo; details: application rate 5 μg/cm^2; after 48 h
Description: For the coating of the test tubes, 9 mg of active compound are first dissolved in 1 ml of acetone p.a. and then diluted to the desired concentration with acetone p.a. 250 μl of the solution are distributed homogeneously on the inner walls and the base of a 25 ml test tube by turning and rocking on an orbital shaker (rocking rotation at 30 rpm for 2 h). With 900 ppm of active compound solution and internal surface area 44.7 cm^2, given homogeneous distribution, an area-based dose of 5 μg/cm^2 is achieved.
After the solvent has evaporated off, the tubes are populated with 5-10 adult cat fleas (Ctenocephalides felis), sealed with a perforated plastic lid and incubated in a horizontal position at room temperature and ambient humidity. After 48 h, efficacy is determined. To this end, the test tubes are stood upright and the fleas are knocked to the base of the tube. Fleas which remain motionless at the base or move in an uncoordinated manner are considered to be dead or moribund.
100% efficacy means that all the fleas were dead or moribund. 0% efficacy means that no fleas were harmed.

[6] = test system: engorged adult female cattle ticks (Boophilus microplus); assay: Boophilus microplus - injection test; type: in vivo; details: application rate 20 μg/animal, after 7 days
Description: as §3
To produce a suitable active compound formulation, 10 mg of active compound are mixed with 0.5 ml of solvent and the concentrate is diluted with solvent to the desired concentration.
1 μl of the active compound solution is injected into the abdomen of 5 engorged adult female cattle ticks (Boophilus microplus). The animals are transferred into dishes and kept in a climate-controlled room.
Efficacy is assessed after 7 days by laying of fertile eggs. Eggs which are not visibly fertile are stored in a climate-controlled cabinet until the larvae hatch after about 42 days. An efficacy of 100% means that none of the ticks has laid any fertile eggs; 0% means that all the eggs are fertile.

[7] = test system: caterpillars of the armyworm (Spodoptera frugiperda); assay: Spodoptera frugiperda - spray test; type: in vivo; details: maize leaf discs, after 7 days
Description: Solvent: 78.0 parts by weight of acetone • • 1.5 parts by weight of dimethylformamide Emulsifier: alkylaryl polyglycol ether […] To produce further test concentrations, the formulation is diluted with emulsifier-containing water. Leaf discs of maize (Zea mays) are sprayed with an active compound preparation of the desired concentration and, after drying, populated with caterpillars of the armyworm (Spodoptera frugiperda).

[8] = test system: L1 larvae of the Australian sheep blowfly (Lucilia cuprina); assay: Lucilia cuprina test; type: in vivo; details: application rate 100 ppm; after 2 days
Description: as §3
(§4) To produce a suitable active compound formulation, 10 mg of active compound are mixed with 0.5 ml of dimethyl sulphoxide, and the concentrate is diluted with water to the desired concentration.
About 20 L1 larvae of the Australian sheep blowfly (Lucilia cuprina) are transferred into a test vessel containing minced horsemeat and the active compound formulation of the desired concentration.
After 2 days, the kill in % is determined. 100% means that all the larvae have been killed; 0% means that no larvae have been killed.

[9] = test system: adult houseflies (Musca domestica); assay: Musca domestica test; type: in vivo; details: application rate 100 ppm; after 2 days
Description: as §3, §4
Vessels containing a sponge treated with sugar solution and the active compound formulation of the desired concentration are populated with 10 adult houseflies (Musca domestica).
After 2 days, the kill in % is determined. 100% means that all of the flies have been killed; 0% means that none of the flies have been killed.

[10] = test system: green peach aphid (Myzus persicae); assay: Myzus persicae spray test (bell pepper plants); type: in vivo; details: application rate 20 ppm, after 6 days
Description: Solvent: 14 parts by weight of dimethylformamide
as §2
as §1, with “water. If the addition of ammonium salts or/and penetrants is required, these are each added in a concentration of 1000 ppm to the formulation solution.” for “water.”
Bell pepper plants (Capsicum annuum) severely infested with the green peach aphid (Myzus persicae) are treated by spraying with the active compound formulation in the desired concentration.
After 6 days, the kill in % is determined. 100% means that all of the aphids have been killed; 0% means that none of the aphids have been killed.

[11] = test system: southern root-knot nematode (Meloidogyne incognita); assay: Meloidogyne incognita test; type: in vivo; details: application rate 20 ppm; lettuce; after 14 days
Description: Solvent: 125.0 parts by weight of acetone
To produce a suitable preparation of active compound, 1 part by weight of active compound is mixed with the stated amount of solvent and the concentrate is diluted with water to the desired concentration.
Vessels are filled with sand, active compound solution, an […] suspension of the southern root-knot nematode (Meloidogyne incognita) and lettuce seeds. The lettuce seeds germinate and the plants develop. The galls develop on the roots.
After 14 days, the nematicidal efficacy in % is determined by the formation of galls. 100% means that no galls were found; 0% means that the number of galls on the treated plants corresponds to the untreated control.

SMILES | efficacy ([1]; application rate 100 g/ha) | efficacy ([1]; application rate 500 g/ha) | LOGP_HCOOH (log P (HCOOH)) ([2]; pH 2.7) | LOGP_NEUTRAL (log P (neutral)) ([2]; pH 7.8) | efficacy ([3]; application rate 100 g/ha) | efficacy ([3]; application rate 500 g/ha) | efficacy (kill) [4] | efficacy (fleas dead or moribund) [5] | efficacy (laying of fertile eggs) [6] | efficacy ([7]; application rate 100 g/ha) | efficacy ([7]; application rate 500 g/ha) | efficacy (kill) [8] | efficacy (kill) [9] | LOGP_HCOOH (log P (HCOOH)) ([2]; acidic range, pH 2.7, 0.1% aqueous formic acid/acetonitrile, 55° C.) | LOGP_NEUTRAL (log P (neutral)) ([2]; neutral range, pH 7.8, 0.001 molar aqueous ammonium hydrogencarbonate/acetonitrile, 55° C.) | efficacy (kill) [10] | nematicidal efficacy (formation of galls) [11]
CCS(=O)(=O)c1ccc(-n2ncc3cccnc32)nc1-c1nc2cc(C(F)(F)F)ncc2n1C [Example I-6] | 100% | 100% | 2.67 | 2.63 | 100% | 100% | 90% | 100% | 90% | 100% | 100% | 100% | 100% |  |  |  | 
CCS(=O)(=O)c1ccc(-n2ncc3c(Cl)cccc32)nc1-c1nc2cc(C(F)(F)F)ncc2n1C [Example I-10] |  |  |  |  | 100% | 100% |  |  | 80% | 100% | 100% | 100% | 100% | 4.27 | 4.24 |  | 
CCS(=O)(=O)c1ccc(N2Cc3ccc(Cl)cc3C2)nc1-c1nc2cc(C(F)(F)F)ncc2n1C [Example I-18] |  |  | 4.03 | 3.99 | 100% | 100% | 100% | 100% |  | 100% | 100% | 100% | 80% |  |  | 98% | 
CCS(=O)(=O)c1ccc(-n2ccc3cc(Cl)cnc32)nc1-c1nc2cc(C(F)(F)F)ncc2n1C [Example I-27] |  |  | 4.41 | 4.39 | 100% | 100% |  |  |  | 100% | 100% |  |  |  |  |  | 100%
CCS(=O)(=O)c1ccc(-n2ccc3ncc(Cl)cc32)nc1-c1nc2cc(C(F)(F)F)ncc2n1C [Example I-28] |  |  | 3.13 | 3.05 | 100% | 100% | 80% |  |  |  | 100% | 100% |  |  |  |  | 90%
CCS(=O)(=O)c1ccc(-n2nc3cccc(Br)n3c2=O)nc1-c1nc2cc(C(F)(F)F)ncc2n1C [Example I-36] |  |  | 2.70 | 2.72 |  |  |  |  |  |  |  |  |  |  |  |  | 100%
